These results are taken from paper PMC7665585, “Antidepressive effect of an inward rectifier K^+ channel blocker peptide, tertiapin-RQ” (PLoS ONE, 2020).

Bridge positions count the residues as written; N and C are the ends. Peptide text beside a SMILES is read from it.

The target of one data set is T1, mouse GIRK1/2 (Mus musculus, UniProt P48542+P63250).
T1 construct: expressed in transfected cells; host or cells: 293T cells, transient calcium phosphate transfection, pCMV6 plasmid
T1 sequence (P63250 1-501): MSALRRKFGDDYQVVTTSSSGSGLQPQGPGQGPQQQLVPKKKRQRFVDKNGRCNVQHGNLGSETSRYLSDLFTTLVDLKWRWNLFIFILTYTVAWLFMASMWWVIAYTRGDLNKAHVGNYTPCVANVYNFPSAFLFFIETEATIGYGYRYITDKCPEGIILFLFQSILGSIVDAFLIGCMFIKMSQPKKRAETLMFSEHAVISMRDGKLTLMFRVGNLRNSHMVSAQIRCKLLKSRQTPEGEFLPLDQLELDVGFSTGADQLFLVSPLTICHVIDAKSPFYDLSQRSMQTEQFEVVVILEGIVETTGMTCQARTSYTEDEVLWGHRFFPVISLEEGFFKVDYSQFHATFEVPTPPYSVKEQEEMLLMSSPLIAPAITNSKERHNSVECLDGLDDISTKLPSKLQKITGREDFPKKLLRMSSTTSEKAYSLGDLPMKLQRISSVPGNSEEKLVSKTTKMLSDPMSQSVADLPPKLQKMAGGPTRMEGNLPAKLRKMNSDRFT
T1 sequence (P48542 1-425): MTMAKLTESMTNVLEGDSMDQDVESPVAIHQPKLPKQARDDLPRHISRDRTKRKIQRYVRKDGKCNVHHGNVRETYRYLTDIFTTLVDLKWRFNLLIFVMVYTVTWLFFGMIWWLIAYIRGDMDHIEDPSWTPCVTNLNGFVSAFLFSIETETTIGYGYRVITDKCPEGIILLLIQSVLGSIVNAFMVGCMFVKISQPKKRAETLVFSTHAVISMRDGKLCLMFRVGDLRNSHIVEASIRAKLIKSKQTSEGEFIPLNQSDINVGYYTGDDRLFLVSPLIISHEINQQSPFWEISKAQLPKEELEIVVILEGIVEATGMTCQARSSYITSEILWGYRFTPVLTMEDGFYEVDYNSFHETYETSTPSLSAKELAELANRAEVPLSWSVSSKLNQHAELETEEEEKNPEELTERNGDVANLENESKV
Kind of data set: Whole-cell patch-clamp of GIRK1/2 in transfected 293T cells. The format is cell-based. From the text: The cDNAs for rat ROMK and mouse GIRK1, 2, and 4 were generously donated by Drs Mikio Hayashi (Kansai Medical University) and David Weaver (Vanderbilt University). The ROMK channels were stably expressed by a cell line, 208–4, which was transduced with lentiviral vectors coexpressing the channel and green fluorescent protein (GFP) as described previously. The GIRK genes, cloned in a pCMV6 plasmid (Origene Technologies Inc, Rockville, MD), were transiently expressed in 293T cells with calcium phosphate transfection. GIRK channel currents were recorded 24 h after transfection.
Cells grown on small cover glasses (3 × 18 mm) were placed in a recording chamber. Whole-cell currents were recorded in Tyrode solution using an Axopatch 200B amplifier (Axon Instruments, Foster City, CA) at 25°C. Tyrode solution contained (in mM): NaCl 140, KCl 5.4, NaH2PO4 0.33, CaCl2 2, MgCl2 1, HEPES 5, and glucose 5.5 (pH 7.4 adjusted with NaOH). […] Whole-cell currents were recorded 60 sec after the peptide application and those from 100 to 300 msec of the step pulses were averaged. […] Whole-cell conductance was calculated as the slope of the current-voltage (I-V) relationship from -140 mV to -100 mV and normalized to the initial value (0 μM TPN), in which BaCl2-resistant current was subtracted and indicted as a percentage.
(In general: In patch-clamp work, channel activity is measured electrically.)

The test system of a further data set is Male ICR mice. Kind of data set: Wheel running test. The format is in vivo, mouse. Particulars: i.c.v.; 4 min, immediately after EPM. The procedure: We performed mouse behavioral experiments in accordance with our previous study. Male ICR mice (n = 199 in total) aged 5 weeks old were purchased from Shimizu Laboratory Supplies (Kyoto, Japan) and maintained in an animal facility for 7–12 days. They had free access to food and water and were kept in a 12-h light/dark cycle (08:00–20:00). Experiments were carried out between 11:00 and 17:00 in a quiet and air-conditioned experimental room, to which mice were habituated for 30–60 min before each experiment. Animal experiments were performed in accordance with the guidelines of the Physiological Society of Japan and were approved by the Committee for Animal Experiments of Kurashiki University of Science and the Arts. Peptides were dissolved in phosphate-buffered saline (PBS). Peptides were injected intracerebroventricularly (i.c.v.) 30 min before behavioral tests (typically 5 μL/mouse), according to a previous study. The mouse was placed into an anesthetizing jar, to which isoflurane (0.2 mL) was added immediately before. […]
Spontaneous motor activity was measured with a multifunctional activity wheel (MK-770, Muromachi Kikai, Tokyo, Japan). […] The number of rotations was counted automatically.

With `CC[C@H](C)[C@@H]1NC(=O)[C@H](CCCNC(=N)N)NC(=O)[C@H](CC(N)=O)NC(=O)[C@@H]2CSSC[C@@H](C(=O)NCC(=O)N[C@@H](CCCCN)C(=O)N[C@@H](CCCCN)C(N)=O)NC(=O)[C@H](CCCCN)NC(=O)[C@H](CCCCN)NC(=O)[C@H](Cc3c[nH]c4ccccc34)NC(=O)[C@H](CSSC[C@H](NC(=O)[C@H](CC(C)C)NC(=O)[C@H](C)N)C(=O)N[C@@H](CC(N)=O)C(=O)N2)NC(=O)[C@H](CCC(N)=O)NC(=O)[C@H](CC(C)C)NC(=O)[C@@H]2CCCN2C(=O)[C@H]([C@@H](C)CC)NC(=O)[C@H]([C@@H](C)CC)NC1=O` [Peptide 3, TPN-LQ] (H-ALCNCNRIIIPLQCWKKCGKK-NH2; disulfide 3-14, 5-18; N-terminus and C-terminus assumed), the “difference in IC50, GIRK1/2 over ROMK” value at mouse GIRK1/2 (ratio of IC50 GIRK1/2 to IC50 ROMK) stood at 20.9 fold. The “spontaneous rotations in activity wheel” value in the data set on Male ICR mice is given as “decreased”.

On to `CC[C@H](C)[C@@H]1NC(=O)[C@H](CCCNC(=N)N)NC(=O)[C@H](CCCNC(=N)N)NC(=O)[C@H](CC(N)=O)NC(=O)[C@@H]2CSSC[C@@H](C(=O)NCC(=O)N[C@@H](CCCCN)C(=O)N[C@@H](CCCCN)C(N)=O)NC(=O)[C@H](CCCCN)NC(=O)[C@H](CCCCN)NC(=O)[C@H](Cc3c[nH]c4ccccc34)NC(=O)[C@H](CSSC[C@H](NC(=O)[C@H](CC(C)C)NC(=O)[C@H](C)N)C(=O)N[C@@H](CC(N)=O)C(=O)N2)NC(=O)[C@H](CCC(N)=O)NC(=O)[C@H](Cc2c[nH]cn2)NC(=O)[C@@H]2CCCN2C(=O)[C@H]([C@@H](C)CC)NC1=O` [Peptide 2, TPN-RQ] (H-ALCNCNRRIIPHQCWKKCGKK-NH2; disulfide 3-14, 5-18), for which the IC50 on mouse GIRK1/2 (293T cells transiently expressing mouse GIRK1/2, high K+ Tyrode solution (Fig 7), read-out: IC50, GIRK1/2 conductance) worked out at 610 nM. In the data set with Male ICR mice, the “spontaneous rotations in activity wheel” value was “decreased spontaneous motor activity”.
